In the supplement of paper PMC9386025:

Legend:
Assay in all cases: drug sensitivity score (DSS) (DSS (dimensionless)); higher = more sensitive (stronger drug response)
FIMM-PDC1 = patient-derived ovarian cancer cells; conditions: genetic perturbation: none (patient-derived cell culture)
Summary of the method: (§1)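 Ovarian cancer cell lines with shRNA induced by 100 ng/ml doxycycline for at least three days, along with patient-derived cultures, were seeded at 1 000 – 1 500 cells per well onto drugs pre-plated in 384-well plates at five concentrations over a 10,000-fold range and incubated for three days at 37 °C and 5.0 % CO2. CellTiter-Glo luminescence measured on a PHERAstar FS served as the viability readout, and each drug's dose-response curve was summarised as a drug sensitivity score following an earlier published method.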

FIMM-PDC3 = patient-derived ovarian cancer cells; conditions: genetic perturbation: none (patient-derived cell culture)
Summary of the method: as §1

FIMM-PDC4 = patient-derived ovarian cancer cells; conditions: genetic perturbation: none (patient-derived cell culture)
Summary of the method: as §1

FIMM-PDC5 = patient-derived ovarian cancer cells; conditions: genetic perturbation: none (patient-derived cell culture)
Summary of the method: as §1

FIMM-PDC6 = patient-derived ovarian cancer cells; conditions: genetic perturbation: none (patient-derived cell culture)
Summary of the method: as §1

FIMM-PDC7 = patient-derived ovarian cancer cells; conditions: genetic perturbation: none (patient-derived cell culture)
Summary of the method: as §1

JHOS2 = test system: JHOS2
Summary of the method: as §1

Kuramochi = test system: Kuramochi
Summary of the method: as §1

OVSAHO = test system: OVSAHO
Summary of the method: as §1

[1] = genetic perturbation: DOX-induced PTK7 shRNA knockdown
[2] = genetic perturbation: DOX-induced control shRNA

Row | SMILES | drug sensitivity score (FIMM-PDC1) | drug sensitivity score (FIMM-PDC3) | drug sensitivity score (FIMM-PDC4) | drug sensitivity score (FIMM-PDC5) | drug sensitivity score (FIMM-PDC6) | drug sensitivity score (FIMM-PDC7) | drug sensitivity score (JHOS2; [1]) | drug sensitivity score (JHOS2; [2]) | drug sensitivity score (Kuramochi; [1]) | drug sensitivity score (Kuramochi; [2]) | drug sensitivity score (OVSAHO; [1]) | drug sensitivity score (OVSAHO; [2])
1 | CCS(=O)(=O)N1CCN(c2ccc(Nc3ncc(C(N)=O)c(NC4CC4)n3)cc2)CC1 [Cerdulatinib] | < 0 | < 0 | < 0 | < 0 | < 0 | 5.3 | 8.2 | < 0 | < 0 | < 0 | < 0 | < 0
2 | CC(C)[C@H]1C(=O)N[C@@H](CCCNC(=N)N)C(=O)NCC(=O)N[C@@H](CC(=O)O)C(=O)N[C@H](Cc2ccccc2)C(=O)N1C [Cilengitide] | 0.75 | < 0 | < 0 | < 0 | < 0 | 1.3 | 5 | 0.9 | 8.65 | 3 | 9.6 | 6.1
3 | N.N.[Cl][Pt][Cl] [Cisplatin] | 4.8 | 18.9 | 5.7 | 5.4 | 9.8 | 4.7 | 14.9 | 4.1 | 14.2 | 7 | 17.6 | 5.1
4 | Nc1nc(Cl)nc2c1ncn2[C@@H]1O[C@H](CO)[C@@H](O)[C@@H]1F [Clofarabine] | 3.15 | 6.1 | 7.4 | 13.6 | 3.2 | 3.2 | 15.1 | 10.3 | < 0 | < 0 | 2.5 | 3.4
5 | CCN(CC)CCOc1ccc(C(=C(Cl)c2ccccc2)c2ccccc2)cc1 [Clomifene] | 7.05 | 5.7 | 7.5 | 8 | 5.2 | 7 | 6.9 | 4.1 | 5.45 | 2 | 5.2 | 4.2
6 | O=C(c1ccc(F)c(F)c1Nc1ccc(I)cc1F)N1CC(O)([C@@H]2CCCCN2)C1 [Cobimetinib] | < 0 | 4.8 | 12.4 | 12.7 | 12 | 7.4 | 0.8 | 11.1 | 6.05 | 2.8 | 9 | 3.9
7 | COc1c(OCCCN2CCOCC2)ccc2c1N=C(NC(=O)c1cnc(N)nc1)N1CCN=C21 [Copanlisib] | 7.3 | 6.2 | 12.4 | 17.3 | 10.2 | 11.1 | 4.4 | 5.8 | 6.95 | 4.6 | 7.8 | 10.5
8 | CC1(COc2ccc3c(c2)ncn3-c2ccc3cccc(N4CCC(N)CC4)c3n2)COC1 [Crenolanib] | 3.55 | 5.3 | 5 | 8.5 | 4 | 4.7 | 8.5 | 5.7 | 3.65 | 2.9 | 3.8 | 3.7
9 | COc1cc2ncnc(Nc3ccc(F)c(Cl)c3)c2cc1NC(=O)/C=C/CN1CCCCC1 [Dacomitinib] | 3.2 | 13.1 | 18.2 | 23.4 | 18 | 14 | < 0 | 2 | 2.45 | 1.6 | 4.8 | 2.4
10 | Cc1c2oc3c(C)ccc(C(=O)N[C@@H]4C(=O)N[C@H](C(C)C)C(=O)N5CCC[C@H]5C(=O)N(C)CC(=O)N(C)[C@@H](C(C)C)C(=O)O[C@@H]4C)c3nc-2c(C(=O)N[C@@H]2C(=O)N[C@H](C(C)C)C(=O)N3CCC[C@H]3C(=O)N(C)CC(=O)N(C)[C@@H](C(C)C)C(=O)O[C@@H]2C)c(N)c1=O [Dactinomycin] | 23.6 | 26.5 | 23.1 | 25.2 | 22.1 | 26 | 21.1 | 23.4 | 23.3 | 19.9 | 23.1 | 18
11 | Cn1c(=O)n(-c2ccc(C(C)(C)C#N)cc2)c2c3cc(-c4cnc5ccccc5c4)ccc3ncc21 [Dactolisib] | 10.1 | 11.1 | 17.2 | 21.6 | 19 | 17 | 10.3 | 14.1 | 11.7 | 11.9 | 11.8 | 13.8
12 | CO[C@@H](C(=O)N1Cc2[nH]nc(NC(=O)c3ccc(N4CCN(C)CC4)cc3)c2C1)c1ccccc1 [Danusertib] | 7.7 | 9.9 | 11.6 | 9.6 | 9.4 | 1.8 | 6.6 | 5.5 | 10.4 | 13 | 17.5 | 7.5
13 | Cc1nc(Nc2ncc(C(=O)Nc3c(C)cccc3Cl)s2)cc(N2CCN(CCO)CC2)n1 [Dasatinib] | 6.05 | 13.9 | 19 | 17.8 | 10.7 | 3.2 | 8.7 | 10.1 | 17.9 | 9.5 | 14.5 | 15
14 | COc1cccc2c1C(=O)c1c(O)c3c(c(O)c1C2=O)C[C@@](O)(C(C)=O)C[C@@H]3O[C@H]1C[C@H](N)[C@H](O)[C@H](C)O1 [Daunorubicin] | 4.65 | 7.8 | 8.4 | 10.7 | 7.4 | 9 | 4 | 5.6 | 4.2 | 4.6 | 8.3 | 4.4
15 | C[C@H]1O[C@@H](O[C@H]2[C@@H](O)C[C@H](O[C@H]3[C@@H](O)C[C@H](O[C@H]4CC[C@@]5(C)[C@H](CC[C@@H]6[C@@H]5C[C@@H](O)[C@]5(C)[C@@H](C7=CC(=O)OC7)CC[C@]65O)C4)O[C@@H]3C)O[C@@H]2C)C[C@H](O)[C@@H]1O [Digoxin] | 9.4 | 12 | 14.6 | 11.9 | 16.6 | 12.5 | 17.2 | 13 | 8.45 | 7.4 | 8.6 | 8
16 | CCc1cnn2c(NCc3ccc[n+]([O-])c3)cc(N3CCCC[C@H]3CCO)nc12 [Dinaciclib] | 20.8 | 17.5 | 20.3 | 24.6 | 22.5 | 22.4 | 17.4 | 19.6 | 18.5 | 15.9 | 24.8 | 16.4
17 | CC(=O)O[C@@]12CO[C@@H]1C[C@H](O)[C@@]1(C)C(=O)[C@H](O)C3=C(C)[C@@H](OC(=O)[C@H](O)[C@@H](NC(=O)OC(C)(C)C)c4ccccc4)C[C@@](O)([C@@H](OC(=O)c4ccccc4)[C@H]21)C3(C)C [Docetaxel] | 15.6 | 21.6 | 18.8 | 21.5 | 7.4 | 7.2 | 20.3 | 12.7 | 18 | 4.4 | 7.6 | 13.5
18 | COc1cccc2c1C(=O)c1c(O)c3c(c(O)c1C2=O)C[C@@](O)(C(=O)CO)C[C@@H]3O[C@H]1C[C@H](N)[C@H](O)[C@H](C)O1 [Doxorubicin] | 4.7 | 6.4 | 6.8 | 5.4 | 3.7 | 6.6 | 7 | 7.6 | 5.1 | 5 | 5.8 | 4.7
19 | Cc1ccc(NS(=O)(=O)c2cccc(C#N)c2)c2[nH]cc(C#N)c12 [E7820] | 2.9 | 18.3 | 3 | 6.4 | 5.9 | 12.2 | 9.6 | 9.5 | 2.4 | 1.5 | 3 | 1.1
20 | Cc1cc(Nc2cc(N3CCN(C)CC3)nc(/C=C/c3ccccc3)n2)n[nH]1 [ENMD-2076] | 6 | 8.6 | 10.5 | 12.4 | 3.4 | 4.2 | 8.3 | 9.4 | 9.65 | 8.1 | 11.5 | 7.9
21 | NC(=O)/C(=C/n1cnc(-c2cc(C(F)(F)F)cc(C(F)(F)F)c2)n1)c1cncnc1 [Eltanexor] | 14.7 | 23.7 | 19.9 | 22.4 | 25.8 | 17.8 | 18.9 | 17 | 12.4 | 17 | 17.8 | 9.5
22 | Nc1ccccc1NC(=O)c1ccc(CNC(=O)OCc2cccnc2)cc1 [Entinostat] | 7.1 | 9 | 4.5 | 8.2 | 6.6 | 6.5 | 4.5 | 2.5 | 8.05 | 2.3 | 8.5 | 4.6
23 | COc1cccc2c1C(=O)c1c(O)c3c(c(O)c1C2=O)C[C@@](O)(C(=O)CO)C[C@@H]3O[C@H]1C[C@H](N)[C@@H](O)[C@H](C)O1 [Epirubicin] | 4.2 | 6.6 | 7.9 | 5.6 | 3.5 | 7.4 | 7.1 | 6.1 | 4.45 | 3.9 | 5.8 | 5.2
24 | CCOc1ccccc1-n1c(C(C)N2CCN(C(=O)COc3ccc(Cl)cc3)CC2)nc2ccccc2c1=O (stereo not drawn) [Erastin] | 0.85 | 17 | < 0 | < 0 | < 0 | 3.3 | 14.6 | 16.2 | 4.8 | 8.5 | 12.9 | 4.7
